Experimental data: patent US10870647B2, “Imidazopyridine derivative, method for preparing same, and pharmaceutical composition containing same as active ingredient for preventing or treating cancer” (DAEGU-GYEONGBUK MEDICAL INNOVATION FOUNDATION, priority 2016, dated 2020)

Experiments:
GIST430 = assay: Cancer cell proliferation inhibition, cell viability after 72 hours; format: cell-based; settings: Homo sapiens, imatinib-sensitive
Outline: (§1)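 GIST-T1/816, GIST-430 and GIST-430/654 seeded at 2×10^4/100 μl; GIST-R3 (patient-derived, imatinib/sunitinib-resistant) likewise. Compounds added next day at 8 concentrations; viability after 72 hours by EZ-cytox or CellTiter-Glo, as % of vehicle-treated cells, IC50 from curves; two independent experiments.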

GIST430/654 = assay: as above; format: cell-based; settings: GIST-430/654, imatinib-resistant
Outline: as §1

GIST-T1/816 = assay: as above; format: cell-based; settings: Homo sapiens, GISTT1, imatinib-resistant
Outline: as §1

GIST-T1 = assay: as above; format: cell-based; settings: Homo sapiens, GISTT1, imatinib-sensitive
CSF1R = target: T1, CSF1R (Homo sapiens, UniProt P07333); assay: Enzyme inhibitory activity (Kd), Reaction Biology Co.; format: binding
T1 construct: purchased Reaction Biology Co

LOK = target: T2, LOK (Homo sapiens, UniProt O94804); assay: as above; format: binding
T2 construct: purchased Reaction Biology Co

[1] = target: T3, JAK2(JH1domain-catalytic) (Homo sapiens, UniProt O60674); assay: as above; format: binding
T3 construct: JAK2 (JH1domain-catalytic); purchased Reaction Biology Co

CDK11 = target: T4, CDK11 (Homo sapiens, UniProt Q9BWU1); assay: as above; format: binding
T4 construct: purchased Reaction Biology Co

FYN = target: T5, FYN (Homo sapiens, UniProt P06241); assay: as above; format: binding
T5 construct: purchased Reaction Biology Co

LCK = target: T6, LCK (Homo sapiens, UniProt P06239); assay: as above; format: binding
T6 construct: purchased Reaction Biology Co

LYN = target: T7, LYN (Homo sapiens, UniProt P07948); assay: as above; format: binding
T7 construct: purchased Reaction Biology Co

SRC = target: T8, SRC (Homo sapiens, UniProt P12931); assay: as above; format: binding
T8 construct: purchased Reaction Biology Co

FGR = target: T9, FGR (Homo sapiens, UniProt P09769); assay: as above; format: binding
T9 construct: purchased Reaction Biology Co

HCK = target: T10, HCK (Homo sapiens, UniProt P08631); assay: as above; format: binding
T10 construct: purchased Reaction Biology Co

BLK = target: T11, BLK (Homo sapiens, UniProt P51451); assay: as above; format: binding
T11 construct: purchased Reaction Biology Co

[2] = test system: STZ diabetes induced white mice; assay: Diabetes (streptozotocin) induced white mice; format: in vivo, SD rats; settings: STZ + Example 11 (30 mg/kg), 8 weeks; Mean ± SE
Protocol: Blood was collected with a heparinized syringe before sacrificing the experimental animals. HbA1c was measured by using a DCA2000 HbA1c reagent kit (SIEMENS Healthcare Diagnostics, Inc., Tarrytown, N.Y., USA) and blood sugar was measured by using a glucometer (OneTouch Ultra, Johnson & Johnson co., CA, USA). The blood sample obtained above was centrifuged at 3000 rpm at 4° C. for 15 minutes to obtain serum. Serum cystatin C was measured by using an ELISA kit (R&D Systems, Minneapolis, Minn., USA). […]
Male SD white mice at 6-7 weeks of age (Japan SLC Inc., Hamamatsu, Japan) were used. Streptozotocin (STZ, 60 mg/kg, intraperitoneally administered) was administered to the experimental animals to induce type I diabetes. The STZ non-treated control group was treated with sodium citrate buffer (sodium citrate 100 mM, citric acid 100 mM, pH 4.5). To investigate the therapeutic effect of the compound of example 11, the compound was orally administered to the experimental animals for 8 weeks from the beginning of diabetes induction. The effect was compared with that of losartan (1 mg/kg/d) that is an angiotensin receptor antagonist being used clinically as a drug to treat diabetic nephropathy. The diabetic control (treated with STZ alone) was administered with the solvent of Example 11, DMSO/Tween 70.DW (10:5:85).
Table 8 below presents the body weight, kidney weight, ratio of kidney to body weight, HbA1C, blood sugar and urine amount (volume) of the mice of each group, which were measured 8 weeks after the treatment of control (non-treated with STZ), STZ, STZ+compound of Example 11 (30 mg/kg) and STZ+losartan (1 mg/kg).

EPHB6 = target: T12, EPHB6 (Homo sapiens, UniProt O15197); assay: Enzyme inhibitory activity (Kd), Reaction Biology Co.; format: binding
T12 construct: purchased Reaction Biology Co
T12 sequence (O15197 32-1021): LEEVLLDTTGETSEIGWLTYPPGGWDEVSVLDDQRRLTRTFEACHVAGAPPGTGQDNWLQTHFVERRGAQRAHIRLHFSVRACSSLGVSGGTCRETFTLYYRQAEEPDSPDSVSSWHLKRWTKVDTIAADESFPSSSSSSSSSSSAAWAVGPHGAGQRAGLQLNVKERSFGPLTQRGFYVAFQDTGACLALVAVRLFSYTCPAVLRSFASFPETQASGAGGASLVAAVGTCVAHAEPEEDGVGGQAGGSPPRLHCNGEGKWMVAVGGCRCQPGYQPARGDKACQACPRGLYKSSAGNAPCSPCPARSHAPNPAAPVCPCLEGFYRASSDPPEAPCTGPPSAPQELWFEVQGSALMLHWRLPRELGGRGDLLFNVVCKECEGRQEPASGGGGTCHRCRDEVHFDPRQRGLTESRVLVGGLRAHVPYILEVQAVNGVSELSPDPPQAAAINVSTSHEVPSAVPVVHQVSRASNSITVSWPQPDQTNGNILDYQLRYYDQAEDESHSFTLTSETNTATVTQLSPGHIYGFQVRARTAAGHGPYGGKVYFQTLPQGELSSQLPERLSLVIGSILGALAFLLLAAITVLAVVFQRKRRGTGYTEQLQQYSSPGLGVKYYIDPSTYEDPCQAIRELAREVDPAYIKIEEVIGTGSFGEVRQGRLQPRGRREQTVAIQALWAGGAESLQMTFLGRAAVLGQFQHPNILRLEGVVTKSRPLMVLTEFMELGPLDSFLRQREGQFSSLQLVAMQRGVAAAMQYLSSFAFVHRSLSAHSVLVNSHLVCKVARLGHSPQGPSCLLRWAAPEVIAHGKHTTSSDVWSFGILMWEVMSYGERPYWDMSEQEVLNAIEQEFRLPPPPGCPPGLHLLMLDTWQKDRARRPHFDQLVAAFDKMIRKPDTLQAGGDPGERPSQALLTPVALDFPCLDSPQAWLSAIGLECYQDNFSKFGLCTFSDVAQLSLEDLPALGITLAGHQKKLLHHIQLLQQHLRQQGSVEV

T1 sequence (P07333 20-972): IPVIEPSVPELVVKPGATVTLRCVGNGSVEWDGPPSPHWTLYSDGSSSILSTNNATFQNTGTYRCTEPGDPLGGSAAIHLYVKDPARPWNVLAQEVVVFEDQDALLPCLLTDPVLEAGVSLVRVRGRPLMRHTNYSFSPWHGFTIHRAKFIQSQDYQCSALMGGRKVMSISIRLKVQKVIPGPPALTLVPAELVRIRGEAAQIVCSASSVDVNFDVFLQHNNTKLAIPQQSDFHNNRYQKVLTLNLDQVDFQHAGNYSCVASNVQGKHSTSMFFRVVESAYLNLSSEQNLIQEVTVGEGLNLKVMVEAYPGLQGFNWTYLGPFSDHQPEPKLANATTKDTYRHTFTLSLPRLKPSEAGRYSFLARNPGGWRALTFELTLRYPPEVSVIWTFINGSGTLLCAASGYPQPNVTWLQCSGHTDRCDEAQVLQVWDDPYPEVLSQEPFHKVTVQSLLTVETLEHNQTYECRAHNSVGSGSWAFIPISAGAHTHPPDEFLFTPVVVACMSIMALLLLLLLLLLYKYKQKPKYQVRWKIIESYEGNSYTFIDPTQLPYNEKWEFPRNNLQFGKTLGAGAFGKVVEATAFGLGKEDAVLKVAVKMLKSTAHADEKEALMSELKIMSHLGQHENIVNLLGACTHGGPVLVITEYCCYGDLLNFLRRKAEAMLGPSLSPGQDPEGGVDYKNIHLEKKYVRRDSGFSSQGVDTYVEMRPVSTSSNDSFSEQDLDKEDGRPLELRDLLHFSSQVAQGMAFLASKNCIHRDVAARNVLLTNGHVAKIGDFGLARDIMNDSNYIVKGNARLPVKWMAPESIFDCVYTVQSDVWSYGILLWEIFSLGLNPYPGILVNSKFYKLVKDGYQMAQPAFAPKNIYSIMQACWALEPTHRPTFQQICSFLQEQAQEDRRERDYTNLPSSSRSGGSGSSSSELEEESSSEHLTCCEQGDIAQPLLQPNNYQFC
T3 sequence (O60674 849-1124 limits assumed): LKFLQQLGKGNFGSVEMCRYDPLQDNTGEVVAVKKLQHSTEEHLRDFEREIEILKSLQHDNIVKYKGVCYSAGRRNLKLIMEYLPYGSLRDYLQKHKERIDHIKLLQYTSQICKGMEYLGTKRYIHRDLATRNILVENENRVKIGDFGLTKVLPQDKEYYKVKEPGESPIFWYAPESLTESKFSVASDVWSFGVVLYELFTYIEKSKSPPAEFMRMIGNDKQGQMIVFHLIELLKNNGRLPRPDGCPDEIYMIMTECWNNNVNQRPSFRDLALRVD
T2 sequence (O94804 whole entry): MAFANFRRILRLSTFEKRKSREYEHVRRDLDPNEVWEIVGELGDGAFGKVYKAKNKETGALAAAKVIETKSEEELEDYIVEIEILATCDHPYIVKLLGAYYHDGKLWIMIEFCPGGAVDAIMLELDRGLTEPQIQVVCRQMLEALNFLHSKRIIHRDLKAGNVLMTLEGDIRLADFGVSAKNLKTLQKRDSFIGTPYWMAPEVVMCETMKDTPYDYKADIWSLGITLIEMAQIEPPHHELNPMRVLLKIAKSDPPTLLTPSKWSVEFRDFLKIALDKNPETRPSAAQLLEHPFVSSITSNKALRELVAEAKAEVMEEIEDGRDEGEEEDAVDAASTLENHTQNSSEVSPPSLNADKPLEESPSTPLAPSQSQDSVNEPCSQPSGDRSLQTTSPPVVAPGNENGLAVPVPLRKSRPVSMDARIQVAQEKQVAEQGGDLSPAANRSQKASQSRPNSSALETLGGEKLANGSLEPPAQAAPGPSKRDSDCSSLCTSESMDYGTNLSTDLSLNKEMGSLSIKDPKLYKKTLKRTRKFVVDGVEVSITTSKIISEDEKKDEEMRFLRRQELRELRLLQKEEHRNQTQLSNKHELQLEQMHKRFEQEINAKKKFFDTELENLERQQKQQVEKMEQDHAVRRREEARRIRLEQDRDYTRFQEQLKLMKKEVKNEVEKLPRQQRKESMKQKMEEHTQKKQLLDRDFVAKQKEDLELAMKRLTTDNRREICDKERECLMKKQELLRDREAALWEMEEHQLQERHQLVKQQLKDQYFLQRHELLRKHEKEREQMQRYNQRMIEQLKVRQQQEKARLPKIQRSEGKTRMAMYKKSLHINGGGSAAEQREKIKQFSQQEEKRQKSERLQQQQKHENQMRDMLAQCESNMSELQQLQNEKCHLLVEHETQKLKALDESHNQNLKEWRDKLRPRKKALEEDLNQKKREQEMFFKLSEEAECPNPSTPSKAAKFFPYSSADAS
T6 sequence (P06239 whole entry): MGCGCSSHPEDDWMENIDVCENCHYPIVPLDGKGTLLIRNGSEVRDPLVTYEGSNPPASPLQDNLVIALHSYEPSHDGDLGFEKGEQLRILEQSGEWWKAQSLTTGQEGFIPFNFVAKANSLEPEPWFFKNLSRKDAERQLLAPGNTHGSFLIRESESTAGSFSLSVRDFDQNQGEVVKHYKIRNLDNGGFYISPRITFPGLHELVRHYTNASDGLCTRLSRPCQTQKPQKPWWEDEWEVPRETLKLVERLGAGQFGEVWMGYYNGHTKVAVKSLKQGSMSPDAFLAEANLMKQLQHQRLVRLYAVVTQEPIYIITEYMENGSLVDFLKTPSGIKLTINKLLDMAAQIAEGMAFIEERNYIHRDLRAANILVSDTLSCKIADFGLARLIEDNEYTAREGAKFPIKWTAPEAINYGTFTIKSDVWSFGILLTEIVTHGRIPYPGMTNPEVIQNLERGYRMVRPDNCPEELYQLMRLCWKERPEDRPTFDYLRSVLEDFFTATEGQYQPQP
T11 sequence (P51451 whole entry): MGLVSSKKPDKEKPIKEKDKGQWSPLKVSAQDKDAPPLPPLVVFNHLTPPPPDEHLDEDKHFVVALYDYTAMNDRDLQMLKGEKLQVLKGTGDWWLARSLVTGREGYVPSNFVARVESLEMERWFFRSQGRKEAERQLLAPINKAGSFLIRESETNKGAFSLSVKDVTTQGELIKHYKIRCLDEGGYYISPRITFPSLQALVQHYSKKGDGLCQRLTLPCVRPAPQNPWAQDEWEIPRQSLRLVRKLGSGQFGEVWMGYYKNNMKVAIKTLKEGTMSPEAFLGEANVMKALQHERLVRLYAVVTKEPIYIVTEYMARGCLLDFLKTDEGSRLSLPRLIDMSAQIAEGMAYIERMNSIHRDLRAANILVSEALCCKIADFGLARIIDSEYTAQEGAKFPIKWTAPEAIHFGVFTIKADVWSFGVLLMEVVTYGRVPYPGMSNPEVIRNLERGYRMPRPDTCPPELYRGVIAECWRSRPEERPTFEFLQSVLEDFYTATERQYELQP
T9 sequence (P09769 whole entry): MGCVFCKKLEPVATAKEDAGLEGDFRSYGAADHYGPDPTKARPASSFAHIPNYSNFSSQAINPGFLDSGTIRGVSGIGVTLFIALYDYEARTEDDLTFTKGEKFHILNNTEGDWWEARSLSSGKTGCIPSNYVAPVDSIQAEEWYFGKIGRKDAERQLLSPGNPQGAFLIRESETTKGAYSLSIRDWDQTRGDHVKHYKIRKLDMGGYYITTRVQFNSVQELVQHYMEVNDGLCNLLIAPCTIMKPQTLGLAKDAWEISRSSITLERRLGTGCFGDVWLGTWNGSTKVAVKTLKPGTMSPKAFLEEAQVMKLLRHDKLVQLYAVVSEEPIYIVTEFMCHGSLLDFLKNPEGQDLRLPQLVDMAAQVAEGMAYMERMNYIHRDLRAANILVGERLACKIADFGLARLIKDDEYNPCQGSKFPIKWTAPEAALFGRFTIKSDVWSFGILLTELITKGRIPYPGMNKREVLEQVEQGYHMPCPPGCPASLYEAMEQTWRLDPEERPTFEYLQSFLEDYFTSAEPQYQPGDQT

SMILES	IC50 (GIST430) [nM]	IC50 (GIST430/654) [nM]	IC50 (GIST-T1/816) [nM]	IC50 (GIST-T1) [nM]	Kd (CSF1R) [nM]	Kd (LOK) [nM]	Kd [1] [nM]	further results
Cc1ccc(C(=O)Nc2ccc(CN3CCN(C)CC3)c(C(F)(F)F)c2)cc1C#Cc1cnc2c(Nc3cnn(C)c3)cccn12 [Example 1, 4-methyl-3-((8-((1-methyl-1H-pyrazol-4-yl)amino)imidazo[1,2-a]pyridin-3-yl)ethynyl)-N-(4-((4-methylpiperazin-1-yl)methyl)-3-(trifluoromethyl)phenyl)benzamide]	36.8	332	35.4	1.9	34	7.3	220	Kd (CDK11): 140 nM
CCN1CCN(Cc2ccc(NC(=O)c3ccc(C)c(C#Cc4cnc5c(Nc6cnn(C)c6)cccn45)c3)cc2C(F)(F)F)CC1 [Example 8, N-(4-((4-ethylpiperazin-1-yl)methyl)-3-(trifluoromethyl)phenyl)-4-methyl-3-((8-((1-methyl-1H-pyrazol-4-yl)amino)imidazo[1,2-a]pyridin-3-yl)ethynyl)benzamide]							270	Kd (FYN): 52 nM; Kd (LCK): 6.4 nM; Kd (LYN): 15 nM; Kd (SRC): 10 nM; Kd (FGR): 13 nM; Kd (HCK): 7.7 nM; Kd (BLK): 5 nM
Cc1ccc(C(=O)Nc2cccc(C(F)(F)F)c2)cc1C#Cc1cnc2c(Nc3cnn(C4CCNCC4)c3)cccn12 [Example 11, 4-methyl-3-((8-((1-(piperidin-4-yl)-1H-pyrazol-4-yl)amino)imidazo[1,2-a]pyridin-3-yl)ethynyl)-N-(3-(trifluoromethyl)phenyl)benzamide]	63.6	560	40.7	0.8				HbA1C [2]: 6.7 ± 0.2 %; Kidney [2]: 1.6 ± 0.1 g; Urine volume [2]: 93.0 ± 12.5; Weight [2]: 241 ± 16.0 g; blood sugar [2]: 392 ± 33 mg/dL; kidney/Weight ratio [2]: 0.7 ± 0.04
Cc1cn(-c2cc(NC(=O)c3ccc(C)c(C#Cc4cnc5c(Nc6cnn(C)c6)cccn45)c3)cc(C(F)(F)F)c2)cn1 [Example 12, 4-methyl-N-(3-(4-methyl-1H-imidazol-1-yl)-5-(trifluoromethyl)phenyl)-3-((8-((1-methyl-1H-pyrazol-4-yl)amino)imidazo[1,2-a]pyridin-3-yl)ethynyl)benzamide]	56.3	564	308	12.3				
Cc1ccc(NC(=O)C2(C(=O)Nc3ccc(F)cc3)CC2)cc1C#Cc1cnc2c(Nc3cnn(C(C)C)c3)cccn12 [Example 78]					440	37		Kd (EPHB6): 15 nM
